Measured values published in article PMC5748279, “Novel Antitubercular 6-Dialkylaminopyrimidine Carboxamides from Phenotypic Whole-Cell High Throughput Screening of a SoftFocus Library: Structure–Activity Relationship and Target Identification Studies” (Journal of Medicinal Chemistry, 2017).
In brackets after ≈: the same amount, converted by molar mass. Several values for one entry are separate records, joined by “and”; a condition that tells them apart may be missing. Equal values may be shown once.

Columns and labels:
[1] = system: Mycobacterium tuberculosis (H37RvMa); test: microbe, parasite or virus in culture; format: cell-based; conditions: for fold more potent in 7H9/ADC compared to 1 / MIC99 7H9/ADC: 7H9/ADC medium; for fold more potent in 7H9/ADC compared to 1 / fold more potent in GAST/Fe compared to 1: versus compound 1; for fold more potent in GAST/Fe compared to 1 / MIC99 GAST/Fe: GAST/Fe medium; for MIC: Mycobacterium tuberculosis, medium not stated
[2] = format: in vitro ADME
Description: and ultracentrifuged for 4 hours (42000 rpm, 37 °C, Beckman Optima L,80XP). Analyte concentration of all compounds and sample types were determined by means of LC,MS/MS (Agilent Rapid Resolution HPLC, AB SCIEX 4000 QTRAP MS).
4.4) Lipophilicity (LogD7.4)
The lipophilicity assay was performed in triplicate using a shake,flask procedure. 10 mM stock solutions of each test compound were used to spike (100 µM) a 1:1 mixture of phosphate buffer (pH 7.4) and n,octanol. The solutions were shaken vigorously (1500 rpm) on an orbital shaker for 3 hours at room temperature. Thereafter the samples were centrifuged in order to fully separate the two immiscible fluids. The samples were analysed by HPLC,DAD (Agilent 1200 Rapid Resolution HPLC with a diode array detector) and the amount of compound in the buffer and n, octanol were used to determine the partition coefficient, LogD7.4.15
4.5) Parallel Artificial Membrane Permeability Assay (PAMPA):
The PAMPA assay was performed in triplicate in 96,well MultiScreen Filter plates (Millipore, 0.4 µM PCTE Membrane). Membrane filters were pre,coated with 5% hexadecane in hexane and allowed to dry prior to the assay. Membrane integrity marker, Lucifer yellow was added to the apical wells of the pre,coated MultiScreen plate donor/drug solutions containing test compound.
Phosphate buffer (pH7.4) was added to the 96,well acceptor plate. 10 mM test compound was used to spike (1 µM) the donor buffer at physiologically relevant pH's (pH 4, 6.5 and 8), the donor plate slotted into the acceptor plate and incubated (4 hours at room temperature) with gentle shaking (40,50 rpm). Following the incubation, sample from the acceptor wells and theoretical equilibrium wells were transferred to the analysis plate and matrix matched with blank donor buffer. Acetonitrile containing internal standard (carbamazepine, 0.0236 µg/mL) was added to all samples and they were analysed by LC,MS/MS (Agilent Rapid Resolution HPLC, AB SCIEX 4500 MS). The normalised (analyte/internal) peak areas were used to calculate the apparent permeability (Papp). Membrane integrity was assessed by calculating the Papp of Lucifer Yellow […]
chemosensitivity. […]. Thus only viable cells […]
formazan. Formazan crystals are dissolved in DMSO. The test samples were tested in triplicate on […]
experiment. […] Emetine was used […]
as the reference drug in all experiments. The initial concentration of emetine was 100 µg/mL, […]
lowest being 0.001 µg/mL. […] The […]
the cell viability (data not shown).
GraphPad Prism v.4 software. […]
expressing the full length hERG channel. Single cell ionic currents were measured in the […]

[3] = in vivo; conditions: male, C57/BL6, mouse
[4] = biological target: T1, BCG_3193 (Rv3169) (Mycobacterium bovis BCG, UniProt A0A1R3Y3B6); test: biochemical; format: binding
[5] = system: BCG_3827 (Rv3768); format: binding, Mycobacterium bovis BCG
[6] = biological target: T1, BCG_3193 (Rv3169); test: biochemical; design: species or system Mycobacterium bovis BCG extract; conditions: bead competition in BCG extract
[7] = Caseum binding using surrogate caseum
[8] = system: PiniB-LUX reporter (Mtb cell wall biosynthesis); format: cell-based; conditions: luminescence over 7 days, INH control
[9] = system: PrecA-LUX reporter (genotoxic compounds); format: cell-based; conditions: luminescence over 7 days, CIPRO control
[10] = system: Mycobacterium tuberculosis (H37RvMa); test: microbe, parasite or virus in culture; design: MIC99 by standard broth microdilution against M. tuberculosis H37Rv; conditions: read-out: MIC99 7H9/ADC (æM)
[11] = physchem; format: physicochemical
Description: (§1) The kinetic solubility assay was performed using a miniaturised shake flask method. 10 mM stock […]
(§2) DMSO, and to spike (1:50) duplicate aqueous samples of FaSSIF (simulating fasting state biorelevant media, pH 6.5), with a final DMSO concentration of 2%. After shaking for 2 hours at 25 °C, the solutions were filtered and analysed by means of HPLC,DAD (Agilent 1200 Rapid Resolution HPLC with a diode array detector). Best fit calibration curves were constructed using the calibration standards, which were used to determine the aqueous samples’ solubility.13
(§3) 4.2) Microsomal stability
(§4) The metabolic stability assay was performed in duplicate in a 96,well micro titre plate. The test compounds (0.1 µM) were incubated individually in mouse, rat and pooled human liver […]
(§5) the cofactor NADPH (1 mM). Reactions were quenched by adding 300 µL of ice cold acetonitrile containing internal standard (carbamazepine, 0.0236 µg/mL). Test compounds in the supernatant were analysed by means of LC,MS/MS (Agilent Rapid Resolution HPLC, AB SCIEX 4000 QTRAP MS) for the disappearance of parent compound. Metabolite searches were not conducted during the metabolic stability assay.14
(§6) 4.3) Plasma protein binding (PPB) assay
The plasma protein binding assay was performed in a 96,well micro titre plate with pooled human plasma, spiked with test compound (5 µM). An aliquot was immediately removed and quenched using ice cold acetonitrile containing internal standard (carbamazepine, 0.0236 µg/mL), and placed in the freezer. This served as the total concentration sample. After pre,incubation (37 °C for 1 hour) duplicate aliquots of the spiked plasma were transferred to ultra,centrifugation tubes, […]

[12] = system: Mtb::gfp strain (H37RvMa::pMSP12GFP); format: cell-based; conditions: supplementary csv; for MIC99 7H9/ADC (values marked c: GFP strain based assay): 7H9/ADC medium; for MIC99 GAST/Fe (values marked c: GFP strain based assay): GAST/Fe medium
[13] = physchem; conditions: sheet table;; kinetic solubility, pH 7.4; aqueous buffer pH 7.4; Kinetic solubility at pH 7.4; read-out: Solubility (æM)
Description: as §1, §2, §3, §4, §5, §6
The plasma protein binding assay was performed in a 96,well micro titre plate with pooled human plasma, spiked with test compound (5 µM). […]

T1 sequence (A0A1R3Y3B6 1-374): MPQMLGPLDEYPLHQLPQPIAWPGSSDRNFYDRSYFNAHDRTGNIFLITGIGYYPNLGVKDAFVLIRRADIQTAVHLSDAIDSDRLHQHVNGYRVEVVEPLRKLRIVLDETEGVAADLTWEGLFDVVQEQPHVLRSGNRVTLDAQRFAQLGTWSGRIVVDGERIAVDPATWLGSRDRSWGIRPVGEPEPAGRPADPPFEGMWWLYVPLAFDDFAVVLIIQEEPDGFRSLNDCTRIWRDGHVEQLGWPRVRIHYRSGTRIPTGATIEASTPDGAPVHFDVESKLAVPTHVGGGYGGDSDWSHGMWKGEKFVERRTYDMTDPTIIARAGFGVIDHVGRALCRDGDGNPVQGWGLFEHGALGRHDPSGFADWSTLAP

## CN(Cc1ccc(Cl)cc1)c1cc(C(=O)Nc2ccccc2)ncn1 [Compound 11, 6-((4-Chlorobenzyl)(methyl)amino)-N-phenylpyrimidine-4-carboxamide]
[1]
  fold more potent in 7H9/ADC compared to 1: ≥ 4 fold
  fold more potent in GAST/Fe compared to 1: ≥ 2 fold

## CN(Cc1ccc(C(F)(F)F)nc1)c1cc(C(=O)Nc2ccccc2)ncn1 [Compound 20, 6-(Methyl((6-(trifluoromethyl)pyridin-3-yl)methyl)amino)-N-phenylpyrimidine-4-carboxamide]
[2]
  PAMPA log Papp: –3.8
[3]; iv, 5 mg/kg
  AUC(0-inf) at 24 h: 19.6 µM·h
  clearance at 24 h: 11.2 mL/min/kg
[3]; po, 20 mg/kg
  AUC(0-inf) at 24 h: 33.3 µM·h

## CN1CCN(c2ccc(NC(=O)c3cc(N(C)Cc4ccc(C(F)(F)F)cc4)ncn3)cc2)CC1 [Compound 40, 6-(Methyl(4-(trifluoromethyl)benzyl)amino)-N-(4-(4-methylpiperazin-1-yl)phenyl)pyrimidine-4-carboxamide]
[4]
  Hill: 1.62
  binding of BCG_3193 to the compound beads in presence of free compound: reduced binding
[4]; IC50
  IC50: 1100 nM
[4]; apparent dissociation constant Kd^app for BCG_3193
  Kd: 610 nM and 690 nM
[4]; pIC50
  IC50: 1100 nM
[5]
  IC50: 10000 nM
  binding of BCG_3827 to the compound beads in presence of free compound: reduced binding
[5]; read-out: apparent dissociation constant Kd^app for BCG_3827
  Kd: 2100 nM and 3800 nM
[2]
  PAMPA log Papp: –4.5
[3]; iv, 5 mg/kg
  AUC(0-inf) at 24 h: 9 µM·h
  half-life at 24 h: 10.3 h
[3]; po, 20 mg/kg
  AUC(0-inf) at 24 h: 9.4 µM·h
  half-life at 24 h: 15.8 h
[6]; IC50, Experiment ID=X028553
  IC50: 1700 nM
[6]; IC50, Experiment ID=X028554
  IC50: 1500 nM
[7]
  caseum distribution unbound: 0.1%

## CN1CCN(c2cccc(NC(=O)c3cc(N(C)Cc4ccc(F)cc4)ncn3)c2)CC1 [Compound 42, 6-((4-Fluorobenzyl)(methyl)amino)-N-(3-(4-methylpiperazin-1-yl)phenyl)pyrimidine-4-carboxamide]
[1]; 3-position versus 4-position N-methylpiperazine
  MIC values dropping by fold: 10- to 30 fold

## COc1ccc(NC(=O)c2cc(N(C)Cc3cccc(F)c3)ncn2)cc1 [Compound 13, 6-((3-Fluorobenzyl)(methyl)amino)-N-(4-methoxyphenyl)pyrimidine-4-carboxamide]
[8]
  PiniB-LUX reporter response: a weak, delayed response
[9]
  PrecA-LUX reporter response: delayed (Day 3 onwards) induction of luminescence

## O=C(Nc1ccccc1)c1cc(OCC2CCCCC2)ncn1 [compound 4]
[10]
  MIC99: > 160 µM

## CN(Cc1ccc(C(F)(F)F)nc1)c1cc(C(=O)Nc2ccc(N3CCOCC3)cn2)ncn1 [Compound 46, 6-(Methyl((6-(trifluoromethyl)pyridin-3-yl)methyl)amino)-N-(5-morpholinopyridin-2-yl)pyrimidine-4-carboxamide]
[1]
  MIC: 2 to 3 µM (≈ 0.947 to 1.42 µg/mL)

## CN(Cc1ccc(F)cc1)c1cc(C(=O)Nc2nncs2)ncn1 [Compound 51, 6-((4-Fluorobenzyl)(methyl)amino)-N-(1,3,4-thiadiazol-2-yl)pyrimidine-4-carboxamide]
[11]; pH 7.4, pH 7.4
  solubility kinetic at 2 h: > 100 µM
[3]; iv, 5 mg/kg
  AUC(0-inf) at 24 h: 22.1 µM·h
  clearance at 24 h: 11.1 mL/min/kg
  half-life at 24 h: 5.1 h
[3]; po, 20 mg/kg
  AUC(0-inf) at 24 h: 17 µM·h
  half-life at 24 h: 4.4 h
[7]
  caseum distribution unbound: 0.5%

## CN(Cc1ccc(C(F)(F)F)cc1)c1cc(C(=O)NC2CCCCC2)ncn1 [Compound 34, N-Cyclohexyl-6-(methyl(4-(trifluoromethyl)benzyl)amino)pyrimidine-4-carboxamide]
[12]
  MIC99 7H9/ADC (values marked c: GFP strain based assay): >125c æM
  MIC99 GAST/Fe (values marked c: GFP strain based assay): 12c æM

## 6-((4-Cyanobenzyl)(methyl)amino)-N-phenylpyrimidine-4-carboxamide [Compound 16]
[1]
  MIC99 7H9/ADC: >50 µM
  MIC99 GAST/Fe: 20 µM
[1]; supplementary csv
  MIC99 7H9/ADC: >50 æM
  MIC99 GAST/Fe: 20 æM
[11]; pH 7.4
  solubility kinetic at 2 h: <5 µM
[11]; supplementary csv
  Solubility: <5 æM

## CN(Cc1ccc(F)cc1)c1cc(C(=O)Nc2ccccc2)ncn1 [Compound 10, 6-((4-Fluorobenzyl)(methyl)amino)-N-phenylpyrimidine-4-carboxamide]
[1]
  fold more potent in 7H9/ADC compared to 1: ≥ 4 fold
  fold more potent in GAST/Fe compared to 1: ≥ 2 fold

## CN(Cc1ccc(S(C)(=O)=O)cc1)c1cc(C(=O)Nc2ccccc2)ncn1 [Compound 17, 6-(Methyl(4-(methylsulfonyl)benzyl)amino)-N-phenylpyrimidine-4-carboxamide]
[12]
  MIC99 7H9/ADC (values marked c: GFP strain based assay): >125c æM
  MIC99 GAST/Fe (values marked c: GFP strain based assay): >125c æM

## [C-]#[N+]c1ccc(CN(C)c2cc(C(=O)Nc3ccccc3)ncn2)cc1 [compound 16]
[10]
  MIC99: > 50 µM
[13]
  solubility at 2 h: < 5 µM

## CN(Cc1ccc(F)cc1)c1cc(C(=O)Nc2ccc(N3CCOCC3)cc2)ncn1 [Compound 45, 6-((4-Fluorobenzyl)(methyl)amino)-N-(4-morpholinophenyl)pyrimidine-4-carboxamide]
[1]
  MIC: < 5 µM

## CN(Cc1cccnc1)c1cc(C(=O)Nc2ccccc2)ncn1 [Compound 19, 6-(Methyl(pyridin-3-ylmethyl)amino)-N-phenylpyrimidine-4-carboxamide]
[12]
  MIC99 7H9/ADC (values marked c: GFP strain based assay): 48c æM
  MIC99 GAST/Fe (values marked c: GFP strain based assay): 37c æM

## 6-(Benzyloxy)-N-phenylpyrimidine-4-carboxamide [Compound 4]
[1]
  MIC99 7H9/ADC: >160 µM
[1]; supplementary csv
  MIC99 7H9/ADC: >160 æM

## CN(Cc1ccc(C(F)(F)F)cc1)c1cc(C(=O)Nc2ccccc2)ncn1 [Compound 12, 6-(Methyl(4-(trifluoromethyl)benzyl)amino)-N-phenylpyrimidine-4-carboxamide]
[8]
  PiniB-LUX reporter response: a weak, delayed response
[9]
  PrecA-LUX reporter response: delayed (Day 3 onwards) induction of luminescence
[2]
  PAMPA log Papp: –4.9
[3]; iv, 5 mg/kg
  AUC(0-inf) at 24 h: 20.4 µM·h
  clearance at 24 h: 11.3 mL/min/kg
  half-life at 24 h: 4.6 h
[3]; po, 20 mg/kg
  AUC(0-inf) at 24 h: 22.2 µM·h
  half-life at 24 h: 8.7 h
[7]
  caseum distribution unbound: 0.1%
